According to US6492303B1, “Compositions for protecting a plant from a disease and using method thereof” (priority 1998, dated 2002):

Tests used:
Eggplant = settings: 500 ml per stock sprayed on foliage, aboveground part 72 hours after spraying; Non-treating Section = 100
Protocol: (§1) Above plants in the age of 5-6 blades were employed for the test. […] The application for MG3 and M1 was executed in the form of spraying on the foliage by 500 ml per stock. The analysis of phytoalexins were carried out by sampling the aboveground part of plants 72 hours after the spraying, extracting the samples with acetone followed by chromatographic elution with ethyl acetate through a silica gel, and finally analyzing on an HPLC instrument.

rice plant “Nihonbare” [1] = experiment: Test 1: production of Sakuranetin and Momilactone-A in wounded rice blades treated with DL-methionine/D-glucose solutions; type: in vivo; settings: rice fifth blades, 25 μl test solution on 1 mm cuts, 60 hours at 25° C. under light; detected amount per cut
Protocol: The structural formula of Sakuranetin is shown in Formula 1, and of Momilactone-A in Formula 2. [drawing 1]
A control section was set up similarly except using 25 μl of distilled water only.
Unit: ng/spot (detected amount per cut)

Grape = settings: 500 ml per stock sprayed on foliage, aboveground part 72 hours after spraying; Non-treating Section = 100
Protocol: as §1

Chinese cabbage = settings: 500 ml per stock sprayed on foliage, aboveground part 72 hours after spraying; Non-treating Section = 100
Protocol: as §1

Beat = settings: 500 ml per stock sprayed on foliage, aboveground part 72 hours after spraying; Non-treating Section = 100
Protocol: as §1

Podded pea = settings: 500 ml per stock sprayed on foliage, aboveground part 72 hours after spraying; Non-treating Section = 100
Protocol: as §1

[2] = test system: rice blight (Pyricularia oryzae); type: in vivo; settings: rice “Nihonbare”, 100 ml sprayed on foliage 24 hours before inoculation, measured ten days after inoculation; Control Section 25.1
Tomato = settings: 500 ml per stock sprayed on foliage, aboveground part 72 hours after spraying; Non-treating Section = 100
Protocol: as §1

Potato = settings: 500 ml per stock sprayed on foliage, aboveground part 72 hours after spraying; Non-treating Section = 100
Protocol: as §1

Carrot = settings: 500 ml per stock sprayed on foliage, aboveground part 72 hours after spraying; Non-treating Section = 100
Protocol: as §1

Soybean = settings: 500 ml per stock sprayed on foliage, aboveground part 72 hours after spraying; Non-treating Section = 100
Protocol: as §1

Tobacco = settings: 500 ml per stock sprayed on foliage, aboveground part 72 hours after spraying; Non-treating Section = 100
Protocol: as §1

[3] = test system: various pathogenic bacteria of plants including Pyricularia oryzae; settings: antibacterial activity; stated as known, no test described; cited from earlier work
rice plant “Nihonbare” [4] = experiment: Test 11: production of Sakuranetin and Momilactone-A in wounded rice blades treated with L-cysteine/D-glucose and comparative solutions; settings: rice fifth blades, 25 μl test solution on 1 mm cuts, 60 hours at 25° C. under light

## CSCCC(N)C(=O)O (racemic) [Section M1, DL-methionine]
Eggplant
  Lubimin (Eggplant), produced amount per unit weight: 23,070
Rice plant “Nihonbare” [1]
  Amount of Momilactone-A: 55.89 ng/spot
  Amount of Sakuranetin: 122.56 ng/spot
Grape
  α-Vinipherin (Grape), produced amount per unit weight: 962
Chinese cabbage
  Blacinin (Chinese cabbage), produced amount per unit weight: 18,600
Beat
  Vetablugarin (Beat), produced amount per unit weight: 1,810
Podded pea
  Pisatin (Podded pea), produced amount per unit weight: 4,522
[2]
  Necrosis Ratio = (necrosis area + decay area)/total area: 7.8%
Tomato
  Ricitin (Tomato), produced amount per unit weight: 10,039
Potato
  Ricitin (Potato), produced amount per unit weight: 590
Carrot
  6-Methoxymelain (Carrot), produced amount per unit weight: 3,222
Soybean
  Griceorin (Soybean), produced amount per unit weight: 1,910
Tobacco
  Capsydiol (Tobacco), produced amount per unit weight: 1,907

## C=C[C@]1(C)CC[C@@H]2C(=C[C@H]3OC(=O)[C@@]4(C)C(=O)CC[C@@]2(C)[C@@H]34)C1 [Momilactone-A]
[3]
  ED50: 15 ppm

## COc1cc(O)c2c(c1)O[C@H](c1ccc(O)cc1)CC2=O [Sakuranetin]
[3]
  ED50: 15 ppm

## N.N.O=S(=O)(O)O [Section AS1, Ammonium sulfate]
Rice plant “Nihonbare” [4]
  Amount of Momilactone-A: not detected
  Amount of Sakuranetin: not detected

## N[C@@H](CS)C(=O)O [Section C1, L-cysteine]
Rice plant “Nihonbare” [4]
  Amount of Momilactone-A: 38.99 ng/spot
  Amount of Sakuranetin: 79.10 ng/spot

## O=C[C@H](O)[C@@H](O)[C@H](O)[C@H](O)CO [Section GL1, D-glucose]
Rice plant “Nihonbare” [4]
  Amount of Momilactone-A: not detected
  Amount of Sakuranetin: not detected

## N[C@@H](CCC(=O)N[C@@H](CS)C(=O)NCC(=O)O)C(=O)O [Section GT1, Glutathione of reduced type]
Rice plant “Nihonbare” [4]
  Amount of Momilactone-A: not detected
  Amount of Sakuranetin: not detected
